Data from ChEMBL document CHEMBL1147689, “Development of withaferin A analogs as probes of angiogenesis” (Bioorg Med Chem Lett, 2006).
Active and inactive are the calls of the source. The rule behind the calls is not given here.

What was measured:
Format in all cases: functional, cell-based
Conditions in all cases: Homo sapiens
[1] = system: HUVEC; assay: Ability to block bFGF-induced vessel growth in the type 1 collagen matrix at 1 uM
[2] = system: HUVEC; assay: Ability to block bFGF-induced vessel growth in the type 1 collagen matrix at 5 uM
[3] = system: HUVEC; assay: Increase of ubiquitinated protein level in TNF-alpha-treated HUVEC at 5 uM
[4] = system: HUVEC; assay: Ability to block bFGF-induced vessel growth in the type 1 collagen matrix at 500 nM

SMILES | Activity [1] | Activity [2] | Activity [3] | Activity [4]
CC1=C(CO)C(=O)O[C@@H]([C@@H](C)[C@H]2CC[C@H]3[C@@H]4C[C@H]5O[C@]56[C@@H](O)C=CC(=O)[C@]6(C)[C@H]4CC[C@]23C)C1 | Active | – | – | –
CC1=C(COC(=O)CNC(=O)CCCCCNC(=O)CCCCCNC(=O)CCCC[C@@H]2SCC3NC(=O)NC32)C(=O)OC([C@@H](C)C2CCC3C4C[C@H]5O[C@]56[C@@H](O)C=CC(=O)[C@]6(C)C4CC[C@@]32C)C1 (stereo not given in full) | – | Active | Active | inactive
CC1=C(CO)C(=O)OC([C@@H](C)C2CCC3C4C(CC[C@@]32C)[C@@]2(C)C(=O)C=CC[C@]2(O)[C@H]2O[C@@H]42)C1 (stereo not given in full) | – | inactive | – | –
